These results are taken from patent publication US20260284018A1, “DUAL INHIBITORS OF DYRK1A AND 5-HT2 FOR TREATING A BRAIN DISORDER” (THE REGENTS OF THE UNIVERSITY OF CALIFORNIA, priority 2023, published 2026).

The target in assay [1] is T1, human recombinant 5-HT2AR (Homo sapiens, UniProt P28223).
T1 construct: host or cells: CHO-K1
Description: IPOne HTRF assay, 5-HT2AR. The class given is cell-based. As to conditions: for antagonist activity at 5-HT2A, IP-One: antagonist mode. On the procedure:
(§1) IPOne Assays. The 5-HT2AR and 5-HT2CR IPOne HTRF assays were performed at Epics Therapeutics S.A. (Belgium, FAST-0505I) using conventional methods. Briefly, CHO-K1 cells expressing human recombinant 5-HT2AR or 5-HT2CR grown to mid-log phase in culture media without antibiotics were detached with PBS-EDTA, centrifuged, and resuspended in medium without antibiotics buffer. Then, 20,000 cells were distributed in a 96-well plate and incubated overnight at 37° C. with 5% CO2. For agonist testing, the medium was removed and 20 μL of assay buffer plus 20 μL of test compound or reference agonist (α-Me-5-HT) was added to each well. The plate was incubated for 60 min at 37° C. with 5% CO2. For antagonist testing, the medium was removed and 20 μL of assay buffer plus 20 μL of test compound or reference antagonist (ketanserin) was added to each well. The plate was incubated for 60 min at 37° C. with 5% CO2. After addition of the lysis buffer containing IP1-d2 and anti-IP1 cryptate detection reagents, plates were incubated for 1 h at room temperature and fluorescence ratios were measured according to the manufacturer's specifications using the HTRF kit.
(Time-resolved FRET reads energy transfer from a long-lived donor to a nearby acceptor.)

Assay [2] addresses T2, human recombinant 5-HT2CR (Homo sapiens, UniProt P28335).
T2 construct: host or cells: CHO-K1
T2 sequence (P28335 33-458): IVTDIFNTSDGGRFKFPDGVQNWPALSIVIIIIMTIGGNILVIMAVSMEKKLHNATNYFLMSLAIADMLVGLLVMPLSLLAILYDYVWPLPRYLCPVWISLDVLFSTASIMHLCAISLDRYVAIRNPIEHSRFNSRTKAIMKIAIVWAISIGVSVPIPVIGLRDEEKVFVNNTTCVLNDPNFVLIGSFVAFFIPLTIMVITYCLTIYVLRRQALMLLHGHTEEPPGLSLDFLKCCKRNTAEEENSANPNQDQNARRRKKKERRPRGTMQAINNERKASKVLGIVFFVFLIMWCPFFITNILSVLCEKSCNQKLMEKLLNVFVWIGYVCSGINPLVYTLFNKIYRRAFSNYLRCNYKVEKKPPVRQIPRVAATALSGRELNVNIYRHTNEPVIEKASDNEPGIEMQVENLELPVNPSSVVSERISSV
Kind of assay: IPOne HTRF assay, 5-HT2CR. The class given is cell-based. To be noted: for antagonist activity at 5-HT2C, IP-One / selectivity of antagonism, 5-HT2C versus 5-HT2A, IP-One: antagonist mode. On the procedure: as §1

The test system of assay [3] is cortical neurons. Description: Spinogenesis. To be noted: cortical neurons (DIV15), 10 μM, 24 h. The class given is cell-based, rat. On the procedure: (A) Representative images of cortical neurons (DIV15) treated with compounds (10 μM) for 24 h. (B) Quantification of dendritic spine density (n=29-55 neurons per treatment condition). Data are represented as mean±SEM. *p<0.05, **p<0.01, ***p<0.001, ****p<0.0001, as compared to the vehicle control following a one-way ANOVA with Dunnett's post hoc test. VEH=vehicle (0.2% DMSO).
Spinogenesis. Spinogenesis experiments were performed as previously described with the exception that cells were treated at DIV14 and fixed 24 h after treatment on DIV15. The images were taken on a Nikon HCA confocal microscope with a 100×/NA 1.45 oil objective. Experiments were performed in duplicate with plates prepared using neurons obtained from independent pregnant dams. Images were analyzed by an experimenter blinded to the treatment conditions.

Assay [4] addresses T3, AURKA (Homo sapiens, UniProt O14965).
T3 construct: purchased Eurofins DiscoverX
To be noted: 10 μM; cited from earlier work.

For assay [5], the target named is T4, AXL (Homo sapiens, UniProt P30530).
T4 construct: purchased Eurofins DiscoverX
To be noted: 10 μM; cited from earlier work.

Assay [6] addresses T5, BRAF(V600E) (Homo sapiens, UniProt P15056, V600E).
T5 construct: purchased Eurofins DiscoverX
As to conditions: 10 μM; cited from earlier work.

For assay [7], the target named is T6, CDK2 (Homo sapiens, UniProt P24941).
T6 construct: purchased Eurofins DiscoverX
As to conditions: 10 μM; cited from earlier work.

In assay [8] the target is T7, CHEK1 (Homo sapiens, UniProt O14757).
T7 construct: purchased Eurofins DiscoverX
To be noted: 10 μM; cited from earlier work.

Assay [9] has as its target T8, CSF1R (Homo sapiens, UniProt P07333).
T8 construct: purchased Eurofins DiscoverX
To be noted: 10 μM; cited from earlier work.

The target in assay [10] is T9, DCAMKL1 (Homo sapiens, UniProt O15075).
T9 construct: purchased Eurofins DiscoverX
To be noted: 10 μM; cited from earlier work.

Assay [11] addresses T10, DYRK1B (Homo sapiens, UniProt Q9Y463).
T10 construct: purchased Eurofins DiscoverX
To be noted: 10 μM; cited from earlier work.

Assay [12] deals with T11, EGFR(L858R) (Homo sapiens, UniProt P00533, L858R).
T11 construct: purchased Eurofins DiscoverX
To be noted: 10 μM; cited from earlier work.

In assay [13] the target is T12, IGF1R (Homo sapiens, UniProt P08069).
T12 construct: purchased Eurofins DiscoverX
As to conditions: 10 μM; cited from earlier work.

Assay [14] addresses T13, JAK3(JH1domain-catalytic) (Homo sapiens, UniProt P52333).
T13 construct: JAK3(JH1domain-catalytic); purchased Eurofins DiscoverX
As to conditions: 10 μM; cited from earlier work.

The target in assay [15] is T14, KIT(V559D, T670I) (Homo sapiens, UniProt P10721, T670I/V559D).
T14 construct: purchased Eurofins DiscoverX
To be noted: 10 μM; cited from earlier work.

In assay [16] the target is T15, MAP3K4 (Homo sapiens, UniProt Q9Y6R4).
T15 construct: purchased Eurofins DiscoverX (KINOMEscan scanEDGE service)
To be noted: 10 μM; cited from earlier work.

The target in assay [17] is T16, MET (Homo sapiens, UniProt P08581).
T16 construct: purchased Eurofins DiscoverX (KINOMEscan scanEDGE service)
As to conditions: 10 μM; cited from earlier work.

The target in assay [18] is T17, PAK2 (Homo sapiens, UniProt Q13177).
T17 construct: purchased Eurofins DiscoverX (KINOMEscan scanEDGE service)
To be noted: 10 μM; cited from earlier work.

In assay [19] the target is T18, PKAC-alpha (Homo sapiens, UniProt P17612).
T18 construct: purchased Eurofins DiscoverX KINOMEscan scanEDGE
As to conditions: 10 μM; cited from earlier work.

For assay [20], the target named is T19, RET (Homo sapiens, UniProt P07949).
T19 construct: purchased Eurofins DiscoverX KINOMEscan scanEDGE
As to conditions: 10 μM; cited from earlier work.

In assay [21] the target is T20, TGFBR1 (Homo sapiens, UniProt P36897).
T20 construct: purchased Eurofins DiscoverX KINOMEscan scanEDGE
To be noted: 10 μM; cited from earlier work.

In assay [22] the target is T21, YANK3 (Homo sapiens, UniProt Q86UX6).
T21 construct: purchased Eurofins DiscoverX KINOMEscan scanEDGE
To be noted: 10 μM; cited from earlier work.

T1 sequence (P28223 whole entry): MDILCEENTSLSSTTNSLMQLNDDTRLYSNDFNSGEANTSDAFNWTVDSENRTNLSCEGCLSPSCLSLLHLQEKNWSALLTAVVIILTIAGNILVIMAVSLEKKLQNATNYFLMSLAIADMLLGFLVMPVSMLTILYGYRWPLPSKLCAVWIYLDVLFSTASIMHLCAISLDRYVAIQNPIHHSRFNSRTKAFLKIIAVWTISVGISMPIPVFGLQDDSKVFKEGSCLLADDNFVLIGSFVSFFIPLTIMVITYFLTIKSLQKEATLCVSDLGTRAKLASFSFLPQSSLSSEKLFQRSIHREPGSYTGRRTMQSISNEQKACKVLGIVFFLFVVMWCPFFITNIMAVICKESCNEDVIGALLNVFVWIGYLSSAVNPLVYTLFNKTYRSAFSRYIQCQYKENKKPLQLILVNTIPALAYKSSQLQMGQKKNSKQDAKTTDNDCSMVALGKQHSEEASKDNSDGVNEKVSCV
T8 sequence (P07333 20-972): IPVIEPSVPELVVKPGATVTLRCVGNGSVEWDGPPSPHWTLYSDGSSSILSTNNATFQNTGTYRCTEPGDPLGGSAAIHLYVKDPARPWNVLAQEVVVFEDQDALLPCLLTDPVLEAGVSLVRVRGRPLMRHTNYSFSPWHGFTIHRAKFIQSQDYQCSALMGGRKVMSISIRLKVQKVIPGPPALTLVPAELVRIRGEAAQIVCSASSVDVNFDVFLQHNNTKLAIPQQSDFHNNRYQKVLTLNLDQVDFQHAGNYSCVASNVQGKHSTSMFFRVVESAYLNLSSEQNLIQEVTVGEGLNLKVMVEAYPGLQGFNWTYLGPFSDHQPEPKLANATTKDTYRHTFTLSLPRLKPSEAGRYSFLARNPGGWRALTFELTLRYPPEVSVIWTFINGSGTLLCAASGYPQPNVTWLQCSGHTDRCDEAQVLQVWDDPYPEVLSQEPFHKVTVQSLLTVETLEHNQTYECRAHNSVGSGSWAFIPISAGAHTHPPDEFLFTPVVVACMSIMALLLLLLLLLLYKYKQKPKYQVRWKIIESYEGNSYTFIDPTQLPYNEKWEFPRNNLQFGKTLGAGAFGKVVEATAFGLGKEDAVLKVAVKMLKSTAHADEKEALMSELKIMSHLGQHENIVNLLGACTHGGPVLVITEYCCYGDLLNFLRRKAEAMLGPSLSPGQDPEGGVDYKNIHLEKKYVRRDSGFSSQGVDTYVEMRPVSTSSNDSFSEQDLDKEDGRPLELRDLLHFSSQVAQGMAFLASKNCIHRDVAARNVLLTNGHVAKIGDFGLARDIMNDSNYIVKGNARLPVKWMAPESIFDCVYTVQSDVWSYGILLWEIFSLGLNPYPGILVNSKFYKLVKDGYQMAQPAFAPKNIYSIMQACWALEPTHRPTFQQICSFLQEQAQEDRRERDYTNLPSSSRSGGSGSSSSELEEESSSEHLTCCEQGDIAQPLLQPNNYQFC
T21 sequence (Q86UX6 whole entry): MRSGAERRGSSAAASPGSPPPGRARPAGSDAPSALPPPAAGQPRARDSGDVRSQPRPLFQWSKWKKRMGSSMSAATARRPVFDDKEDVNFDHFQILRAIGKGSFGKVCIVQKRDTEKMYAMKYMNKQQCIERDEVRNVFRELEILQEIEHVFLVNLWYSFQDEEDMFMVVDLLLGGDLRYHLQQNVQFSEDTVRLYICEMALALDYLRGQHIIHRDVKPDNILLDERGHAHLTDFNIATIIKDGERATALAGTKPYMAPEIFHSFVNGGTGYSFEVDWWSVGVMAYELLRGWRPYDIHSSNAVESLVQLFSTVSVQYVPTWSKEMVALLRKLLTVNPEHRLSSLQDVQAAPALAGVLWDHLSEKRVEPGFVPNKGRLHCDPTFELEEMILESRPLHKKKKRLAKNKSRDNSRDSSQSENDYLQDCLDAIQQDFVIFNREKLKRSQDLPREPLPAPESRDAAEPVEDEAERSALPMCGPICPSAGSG
T4 sequence (P30530 26-894): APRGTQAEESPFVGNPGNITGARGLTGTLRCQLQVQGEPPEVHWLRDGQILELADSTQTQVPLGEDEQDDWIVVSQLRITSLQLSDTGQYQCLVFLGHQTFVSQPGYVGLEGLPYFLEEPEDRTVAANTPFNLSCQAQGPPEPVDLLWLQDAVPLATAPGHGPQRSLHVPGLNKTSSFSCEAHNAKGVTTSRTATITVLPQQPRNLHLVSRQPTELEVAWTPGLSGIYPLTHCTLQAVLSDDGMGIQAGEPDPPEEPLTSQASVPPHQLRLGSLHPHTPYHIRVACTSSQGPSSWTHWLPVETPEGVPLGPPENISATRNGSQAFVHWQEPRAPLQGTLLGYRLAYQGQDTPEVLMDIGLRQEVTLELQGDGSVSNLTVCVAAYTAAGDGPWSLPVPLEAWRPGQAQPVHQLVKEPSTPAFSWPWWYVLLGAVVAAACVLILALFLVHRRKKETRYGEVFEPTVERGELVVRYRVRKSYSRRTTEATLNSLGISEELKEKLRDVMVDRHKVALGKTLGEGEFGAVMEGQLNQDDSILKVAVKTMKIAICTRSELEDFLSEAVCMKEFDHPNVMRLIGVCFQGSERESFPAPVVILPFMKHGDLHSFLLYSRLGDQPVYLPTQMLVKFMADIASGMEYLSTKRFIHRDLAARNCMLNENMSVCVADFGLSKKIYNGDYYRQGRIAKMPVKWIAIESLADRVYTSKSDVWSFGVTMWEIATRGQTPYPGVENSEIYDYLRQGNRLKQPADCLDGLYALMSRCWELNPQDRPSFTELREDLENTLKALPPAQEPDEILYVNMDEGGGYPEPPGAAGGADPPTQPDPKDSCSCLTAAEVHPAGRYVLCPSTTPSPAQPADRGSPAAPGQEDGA
T5 sequence (P15056 whole entry V600E): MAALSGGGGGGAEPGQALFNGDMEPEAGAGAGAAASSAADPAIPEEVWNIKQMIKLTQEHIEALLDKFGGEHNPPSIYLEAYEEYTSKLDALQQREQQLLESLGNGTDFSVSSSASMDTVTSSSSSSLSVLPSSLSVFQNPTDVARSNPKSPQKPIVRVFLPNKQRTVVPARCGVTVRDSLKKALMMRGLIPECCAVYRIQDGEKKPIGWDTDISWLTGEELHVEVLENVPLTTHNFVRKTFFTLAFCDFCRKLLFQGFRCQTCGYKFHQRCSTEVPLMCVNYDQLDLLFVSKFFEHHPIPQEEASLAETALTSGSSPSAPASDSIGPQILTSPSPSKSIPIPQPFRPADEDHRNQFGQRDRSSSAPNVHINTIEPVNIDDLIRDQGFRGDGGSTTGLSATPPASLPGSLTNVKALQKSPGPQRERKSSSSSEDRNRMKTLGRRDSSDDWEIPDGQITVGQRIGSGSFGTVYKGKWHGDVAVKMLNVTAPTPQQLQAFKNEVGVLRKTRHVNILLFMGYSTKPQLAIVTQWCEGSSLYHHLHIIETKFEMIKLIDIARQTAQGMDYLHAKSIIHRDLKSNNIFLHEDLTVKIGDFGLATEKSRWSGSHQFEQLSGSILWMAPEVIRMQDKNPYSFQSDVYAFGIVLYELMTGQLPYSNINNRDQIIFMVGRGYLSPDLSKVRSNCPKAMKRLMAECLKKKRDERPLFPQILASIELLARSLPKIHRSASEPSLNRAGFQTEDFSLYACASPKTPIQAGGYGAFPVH
T10 sequence (Q9Y463 whole entry): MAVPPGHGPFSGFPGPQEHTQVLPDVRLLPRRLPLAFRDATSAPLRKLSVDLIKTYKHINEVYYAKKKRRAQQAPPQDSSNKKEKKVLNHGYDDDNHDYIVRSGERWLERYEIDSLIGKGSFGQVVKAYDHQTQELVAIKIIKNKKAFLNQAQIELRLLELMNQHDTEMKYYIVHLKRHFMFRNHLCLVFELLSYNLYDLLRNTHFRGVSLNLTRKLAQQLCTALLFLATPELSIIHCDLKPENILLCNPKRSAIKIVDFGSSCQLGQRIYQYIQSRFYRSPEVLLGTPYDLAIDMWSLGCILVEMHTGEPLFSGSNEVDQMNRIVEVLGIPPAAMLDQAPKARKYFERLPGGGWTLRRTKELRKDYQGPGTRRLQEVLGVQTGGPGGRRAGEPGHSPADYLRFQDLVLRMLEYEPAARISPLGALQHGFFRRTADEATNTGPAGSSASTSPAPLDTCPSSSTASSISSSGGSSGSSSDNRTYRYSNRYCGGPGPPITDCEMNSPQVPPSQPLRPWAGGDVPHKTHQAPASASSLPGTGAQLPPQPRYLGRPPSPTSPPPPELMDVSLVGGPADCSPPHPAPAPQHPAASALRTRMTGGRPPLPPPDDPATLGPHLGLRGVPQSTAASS
T9 sequence (O15075 whole entry): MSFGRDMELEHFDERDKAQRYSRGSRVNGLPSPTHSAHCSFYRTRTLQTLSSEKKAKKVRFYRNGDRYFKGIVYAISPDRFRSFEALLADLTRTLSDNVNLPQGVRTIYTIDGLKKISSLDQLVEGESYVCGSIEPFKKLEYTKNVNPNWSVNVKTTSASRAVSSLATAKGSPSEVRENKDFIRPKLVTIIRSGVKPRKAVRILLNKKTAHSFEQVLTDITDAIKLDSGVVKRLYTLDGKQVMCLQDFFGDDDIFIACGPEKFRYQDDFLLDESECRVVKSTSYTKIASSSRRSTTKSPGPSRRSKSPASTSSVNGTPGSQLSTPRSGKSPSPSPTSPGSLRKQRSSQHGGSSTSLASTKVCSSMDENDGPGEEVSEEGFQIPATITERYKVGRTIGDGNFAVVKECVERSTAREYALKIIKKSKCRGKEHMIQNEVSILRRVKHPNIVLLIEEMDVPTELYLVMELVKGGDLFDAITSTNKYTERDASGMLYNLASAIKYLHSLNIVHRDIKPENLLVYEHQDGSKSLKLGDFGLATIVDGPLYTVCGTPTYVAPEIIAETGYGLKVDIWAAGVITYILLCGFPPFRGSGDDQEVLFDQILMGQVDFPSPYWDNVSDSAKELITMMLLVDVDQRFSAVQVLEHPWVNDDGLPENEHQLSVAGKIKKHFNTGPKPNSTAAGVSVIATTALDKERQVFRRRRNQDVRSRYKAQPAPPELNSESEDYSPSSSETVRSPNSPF

On to `COc1ccc2c3ccnc(C)c3n(CCN(C)C)c2c1.O=C(O)/C=C/C(=O)O` [HTW_A_8 fumarate, 2-(7-methoxy-1-methyl-9H-pyrido[3,4-b]indol-9-yl)-N,N-dimethylethan-1-amine Fumarate Salt (2:3)], for which, in [1], the “activation of 5-HT2A, IP-One agonist mode” value is “no activation” and the “antagonist activity at 5-HT2A, IP-One” value was “antagonist activity”. Moreover, in assay [2], the “activation of 5-HT2C, IP-One agonist mode” value was “no activation”; the “antagonist activity at 5-HT2C, IP-One” value is recorded as “antagonist activity”; the “selectivity of antagonism, 5-HT2C versus 5-HT2A, IP-One” value is recorded as “moderate selectivity for antagonism of 5-HT2C”. The dendritic spine density entry in assay [3] is given as “significantly increases dendritic spine density”.

For `COc1ccc2c(c1)N(CCN(C)C)/C(=C/C(C)=O)S2.O=C(O)/C=C/C(=O)O` [HTW_B_14 fumarate, (Z)-1-(3-(2-(dimethylamino)ethyl)-5-methoxybenzo[d]thiazol-2(3H)-ylidene)propan-2-one Fumarate Salt (1:1)], in [1], the “activation of 5-HT2A, IP-One agonist mode” value is given as “no activation” and the “antagonist activity at 5-HT2A, IP-One” value is given as “antagonist activity”. Moreover, in [2], the “activation of 5-HT2C, IP-One agonist mode” value is reported as “no activation”; the “antagonist activity at 5-HT2C, IP-One” value was “antagonist activity”; the “selectivity of antagonism, 5-HT2C versus 5-HT2A, IP-One” value is given as “moderate selectivity for antagonism of 5-HT2C”.

Consider `COc1ccc2c(c1)[nH]c1c(C)nccc12` [Harmine, harmine], for which the “Percent Control” value in [4] was 85%; in assay [5], 82%; in assay [6], 90%; in [7] it was 98%; in assay [8] it was 96%; in assay [9] it was 88%. The “Percent Control” value in assay [10] is recorded as 79%; in assay [11] it was 6.1%; in assay [12] it was 81%; in [13], 100%; in assay [14] it was 61%; in [15], 92%. Also, the “Percent Control” value in [16] is 93%; in [17], 100%; in assay [18], 47%; in [19], 88%; in [20] it was 91%; in assay [21] it was 91%. For the same compound, in assay [22], the “Percent Control” value is on record as 77%.
